Test results from ChEMBL document CHEMBL2062520, “Synthesis and in vitro antimalarial activity of a series of bisquinoline and bispyrrolo[1,2a]quinoxaline compounds” (Eur J Med Chem, 2012).
In brackets after ≈: the same amount, converted by molar mass.

What was measured:
Plasmodium falciparum [1] = assay: Antimalarial activity against asexual erythrocyte stages of chloroquine-sensitive Plasmodium falciparum D10; assay type: functional, organism-based
Plasmodium falciparum [2] = assay: Resistant index, ratio of IC50 for chloroquine-resistant Plasmodium falciparum Dd2 to IC50 for chloroquine-sensitive Plasmodium falciparum D10; assay type: functional
Plasmodium falciparum [3] = assay: Antimalarial activity against asexual erythrocyte stages of chloroquine-resistant Plasmodium falciparum Dd2; assay type: functional, organism-based
[4] = Aqueous solubility of the compound in phosphate buffer at pH 5.5 after 24 hrs by HPLC analysis; assay type: physicochemical
physchem = conditions: octanol/phosphate buffered saline
Description: Octanol-phosphate buffered saline distribution coefficient, log D of the compound at 2 mg after 48 hrs by HPLC analysis

CHO = assay: Cytotoxicity against CHO cells by MTT assay; assay type: cell-based; conditions: Cricetulus griseus
[5] = Selectivity index, ratio of IC50 for CHO cells to IC50 for chloroquine-sensitive Plasmodium falciparum D10; assay type: toxicity, cell-based; conditions: hamster, read-out: Ratio IC50
UACC-62 = assay: Cytotoxicity against human UACC62 cells after 48 hrs by sulforhodamine B assay; assay type: functional; conditions: for GI50 / TGI / CC50: Homo sapiens, UACC-62, 48 h; for CC50: read-out: LC50 (the source's name)
TK-10 = assay: Cytotoxicity against human TK10 cells after 48 hrs by sulforhodamine B assay; assay type: functional; conditions: for GI50 / TGI / CC50: Homo sapiens, TK-10, 48 h; for CC50: read-out: LC50 (the source's name)
MCF7 = assay: Cytotoxicity against human MCF7 cells after 48 hrs by sulforhodamine B assay; assay type: functional; conditions: for GI50 / TGI / CC50: Homo sapiens, MCF7, 48 h; for CC50: read-out: LC50 (the source's name)

SMILES: Cc1cccc2nccc(NCCCNCCNc3ccnc4cccc(C)c34)c12
- IC50 (Plasmodium falciparum [1]): 214 nM
- Ratio IC50 (Plasmodium falciparum [2]): 0.5
- IC50 (Plasmodium falciparum [3]): 105 nM
- solubility at 24 h [4]: 28.2 mM (≈ 11.3 mg/mL)
- logD at 48 h (physchem): 0.32

SMILES: c1ccc2c(c1)nc(NCCCNCCNc1nc3ccccc3n3cccc13)c1cccn12
- IC50 (Plasmodium falciparum [1]): 199 nM
- Ratio IC50 (Plasmodium falciparum [2]): 6.9
- IC50 (CHO): 2800 nM
- selectivity ratio [5]: 14
- IC50 (Plasmodium falciparum [3]): 1380 nM
- solubility at 24 h [4]: 28.6 mM (≈ 12.8 mg/mL)
- logD at 48 h (physchem): 0.34

SMILES: CN(CCCNc1ccnc2cc(Cl)ccc12)CCCNc1ccnc2cc(Cl)ccc12
- IC50 (Plasmodium falciparum [1]): 37.4 nM
- Ratio IC50 (Plasmodium falciparum [2]): 1.9
- IC50 (CHO): 7800 nM
- selectivity ratio [5]: 211
- IC50 (Plasmodium falciparum [3]): 71.1 nM
- solubility at 24 h [4]: 32.9 mM (≈ 15.4 mg/mL)
- LC100 (UACC-62): >100 µM
- GI50 (UACC-62): 360 nM
- TGI (UACC-62): 640 nM
- CC50 (UACC-62): 920 nM
- LC100 (TK-10): 45.12 µM
- GI50 (TK-10): 540 nM
- TGI (TK-10): 1000 nM
- CC50 (TK-10): 5610 nM
- LC100 (MCF7): >100 µM
- GI50 (MCF7): 390 nM
- TGI (MCF7): 690 nM
- CC50 (MCF7): 1200 nM
- logD at 48 h (physchem): 0.29

SMILES: Clc1ccc2c(NCCNCCNCCNc3ccnc4cc(Cl)ccc34)ccnc2c1
- IC50 (Plasmodium falciparum [1]): 87.7 nM
- Ratio IC50 (Plasmodium falciparum [2]): 0.4
- IC50 (CHO): 8010 nM
- selectivity ratio [5]: 93
- IC50 (Plasmodium falciparum [3]): 35.5 nM
- solubility at 24 h [4]: 38.7 mM (≈ 18.2 mg/mL)
- LC100 (UACC-62): >100 µM
- GI50 (UACC-62): 2870 nM
- TGI (UACC-62): 5300 nM
- CC50 (UACC-62): 7740 nM
- LC100 (TK-10): >100 µM
- GI50 (TK-10): 5890 nM
- TGI (TK-10): 5360 nM
- CC50 (TK-10): 7710 nM
- LC100 (MCF7): >100 µM
- GI50 (MCF7): 760 nM
- TGI (MCF7): 3530 nM
- CC50 (MCF7): 7370 nM
- logD at 48 h (physchem): 0.28

SMILES: Clc1ccc2c(NCCCNCCNCCCNc3ccnc4cc(Cl)ccc34)ccnc2c1
- IC50 (Plasmodium falciparum [1]): 129 nM
- Ratio IC50 (Plasmodium falciparum [2]): 0.4
- IC50 (CHO): 13000 nM
- selectivity ratio [5]: 102
- IC50 (Plasmodium falciparum [3]): 49.5 nM
- solubility at 24 h [4]: 18.9 mM (≈ 9.42 mg/mL)
- LC100 (UACC-62): >100 µM
- GI50 (UACC-62): 1060 nM
- TGI (UACC-62): 4090 nM
- CC50 (UACC-62): 7110 nM
- LC100 (TK-10): >100 µM
- GI50 (TK-10): 2100 nM
- TGI (TK-10): 4740 nM
- CC50 (TK-10): 7380 nM
- LC100 (MCF7): >100 µM
- GI50 (MCF7): 380 nM
- TGI (MCF7): 1650 nM
- CC50 (MCF7): 6430 nM
- logD at 48 h (physchem): 0.3

SMILES: Cc1cccc2nccc(NCCNCCNCCNc3ccnc4cccc(C)c34)c12
- IC50 (Plasmodium falciparum [1]): 1420 nM
- Ratio IC50 (Plasmodium falciparum [2]): 0.8
- IC50 (Plasmodium falciparum [3]): 1100 nM
- solubility at 24 h [4]: 38.9 mM (≈ 16.7 mg/mL)
- logD at 48 h (physchem): 0.4

SMILES: CC[C@H]1CN2CCc3cc(OC)c(OC)cc3[C@@H]2C[C@@H]1C[C@H]1NCCc2cc(OC)c(OC)cc21 [EMETINE]
- IC50 (CHO): 300 nM

SMILES: Clc1ccc2c(NCCCNCCNc3ccnc4cc(Cl)ccc34)ccnc2c1
- IC50 (Plasmodium falciparum [1]): 66.1 nM
- Ratio IC50 (Plasmodium falciparum [2]): 0.9
- IC50 (CHO): 3100 nM
- selectivity ratio [5]: 47
- IC50 (Plasmodium falciparum [3]): 56.4 nM
- solubility at 24 h [4]: 23.5 mM (≈ 10.4 mg/mL)
- LC100 (UACC-62): >100 µM
- GI50 (UACC-62): 2070 nM
- TGI (UACC-62): 4890 nM
- CC50 (UACC-62): 7720 nM
- LC100 (TK-10): >100 µM
- GI50 (TK-10): 1230 nM
- TGI (TK-10): 4250 nM
- CC50 (TK-10): 7270 nM
- LC100 (MCF7): >100 µM
- GI50 (MCF7): 600 nM
- TGI (MCF7): 2790 nM
- CC50 (MCF7): 7210 nM
- logD at 48 h (physchem): 0.3

SMILES: Clc1ccc2c(NCCCNCCCNc3ccnc4cc(Cl)ccc34)ccnc2c1
- solubility at 24 h [4]: 28.9 mM (≈ 13.1 mg/mL)
- logD at 48 h (physchem): 0.28

SMILES: Cc1cccc2nccc(NCCCN(C)CCCNc3ccnc4cccc(C)c34)c12
- IC50 (Plasmodium falciparum [1]): 185 nM
- Ratio IC50 (Plasmodium falciparum [2]): 10.4
- IC50 (Plasmodium falciparum [3]): 1910 nM
- solubility at 24 h [4]: 31.2 mM (≈ 13.3 mg/mL)
- logD at 48 h (physchem): 0.16

SMILES: Cc1cccc2nccc(NCCCNCCNCCCNc3ccnc4cccc(C)c34)c12
- IC50 (Plasmodium falciparum [1]): 922 nM
- Ratio IC50 (Plasmodium falciparum [2]): 0.7
- IC50 (CHO): 174000 nM
- selectivity ratio [5]: 187
- IC50 (Plasmodium falciparum [3]): 608 nM
- solubility at 24 h [4]: 36.5 mM (≈ 16.7 mg/mL)
- logD at 48 h (physchem): 0.34

SMILES: CN(CCCNc1nc2ccccc2n2cccc12)CCCNc1nc2ccccc2n2cccc12
- IC50 (Plasmodium falciparum [1]): 112 nM
- Ratio IC50 (Plasmodium falciparum [2]): 6.5
- IC50 (CHO): 4300 nM
- selectivity ratio [5]: 39
- IC50 (Plasmodium falciparum [3]): 724 nM
- solubility at 24 h [4]: 30.2 mM (≈ 14.4 mg/mL)
- logD at 48 h (physchem): 0.36

SMILES: c1ccc2c(c1)nc(NCCNCCNc1nc3ccccc3n3cccc13)c1cccn12
- IC50 (Plasmodium falciparum [1]): 554 nM
- Ratio IC50 (Plasmodium falciparum [2]): 3.4
- IC50 (Plasmodium falciparum [3]): 1900 nM
- solubility at 24 h [4]: 27.5 mM (≈ 12 mg/mL)
- logD at 48 h (physchem): 0.39

SMILES: c1ccc2c(c1)nc(NCCNCCNCCNc1nc3ccccc3n3cccc13)c1cccn12
- IC50 (Plasmodium falciparum [1]): 1800 nM
- Ratio IC50 (Plasmodium falciparum [2]): 2.3
- IC50 (CHO): 8100 nM
- selectivity ratio [5]: 4.5
- IC50 (Plasmodium falciparum [3]): 4170 nM
- solubility at 24 h [4]: 34 mM (≈ 16.3 mg/mL)
- logD at 48 h (physchem): -0.02

SMILES: c1ccc2c(c1)nc(NCCCNCCCNc1nc3ccccc3n3cccc13)c1cccn12
- IC50 (Plasmodium falciparum [1]): 75.3 nM
- Ratio IC50 (Plasmodium falciparum [2]): 4.7
- IC50 (CHO): 3800 nM
- selectivity ratio [5]: 51
- IC50 (Plasmodium falciparum [3]): 356 nM
- solubility at 24 h [4]: 24.1 mM (≈ 11.2 mg/mL)
- logD at 48 h (physchem): 0.32

SMILES: Clc1ccc2c(NCCNCCNc3ccnc4cc(Cl)ccc34)ccnc2c1
- solubility at 24 h [4]: 32 mM (≈ 13.6 mg/mL)
- logD at 48 h (physchem): 0.3

SMILES: Cc1cccc2nccc(NCCCNCCCNc3ccnc4cccc(C)c34)c12
- IC50 (Plasmodium falciparum [1]): 129 nM
- Ratio IC50 (Plasmodium falciparum [2]): 0.6
- IC50 (CHO): 132000 nM
- selectivity ratio [5]: 1024
- IC50 (Plasmodium falciparum [3]): 80.2 nM
- solubility at 24 h [4]: 27.9 mM (≈ 11.5 mg/mL)
- logD at 48 h (physchem): 0.14

SMILES: Cc1cccc2nccc(NCCNCCNc3ccnc4cccc(C)c34)c12
- IC50 (Plasmodium falciparum [1]): 741 nM
- Ratio IC50 (Plasmodium falciparum [2]): 0.7
- IC50 (Plasmodium falciparum [3]): 507 nM
- solubility at 24 h [4]: 29.5 mM (≈ 11.4 mg/mL)
- logD at 48 h (physchem): 0.05
